Laboratory results reported in paper PMC4408175, “Functional and structural diversity in GH62 α-L-arabinofuranosidases from the thermophilic fungus Scytalidium thermophilum” (Microbial Biotechnology, 2014).

Molecular target: T1, Abf62C (Mycothermus thermophilus, UniProt A0A059U759)
T1 construct: gene AXH62C; N-terminal His tag, pET15b LIC, E. coli BL21(DE3) Gold; monomer
Test: X-ray crystal structure of complex, […] Å
Type: binding
Conditions: co-crystals, 2 mM preincubation, 20 mM xylotriose in reservoir, 22 °C; active site subsites +2NR, +1, +2R; no calcium

T1 sequence (A0A059U759 entry or part of it): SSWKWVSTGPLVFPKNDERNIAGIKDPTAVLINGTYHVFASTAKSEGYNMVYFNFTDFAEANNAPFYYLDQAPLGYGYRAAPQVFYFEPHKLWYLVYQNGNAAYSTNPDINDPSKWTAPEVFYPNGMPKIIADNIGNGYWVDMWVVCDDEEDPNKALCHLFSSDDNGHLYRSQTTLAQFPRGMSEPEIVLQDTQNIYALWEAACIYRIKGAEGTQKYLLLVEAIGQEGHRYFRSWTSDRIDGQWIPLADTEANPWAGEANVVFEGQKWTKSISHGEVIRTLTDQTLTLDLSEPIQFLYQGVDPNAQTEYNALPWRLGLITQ

OC1OC[C@@H](O[C@@H]2OC[C@@H](O[C@@H]3OC[C@@H](O)[C@H](O)[C@H]3O)[C@H](O)[C@H]2O)[C@H](O)[C@H]1O (stereo partly shown) [xylotriose]
X-ray crystal structure of complex, 1.48 Å: Abf62C-xylotriose complex have been deposited in the Research Co-laboratory for Structural Bioinformatics Protein Data Bank
